Source: ChEMBL document CHEMBL3044703, “Safening efficacy of halogenated acetals, ketals and amides and relationship between the structure and effect on glutathione and glutathione S-transferases in maize” (2007)
Calls of active or inactive are those of the source. The calls are words filed in the database; no cut-off is given here.

Assays:
Zea mays [1] = experiment: Increase in GSH content in Zea mays (maize) root at 50 uM applied to seeds incubated for 5 days by DNTB-based spectrophotometric analysis relative to control; assay type: functional
Zea mays [2] = experiment: Increase in GSH content in Zea mays (maize) shoot at 50 uM applied to seeds incubated for 5 days by DNTB-based spectrophotometric analysis relative to control; assay type: functional
Zea mays [3] = experiment: Effect on GSH content in Zea mays (maize) shoot at 50 uM applied to seeds incubated for 5 days by DNTB-based spectrophotometric analysis relative to control; assay type: functional, organism-based
Zea mays [4] = experiment: Safening activity against acetochlor-induced phytotoxicity against Zea mays (maize) assessed as increase in shoot length at 50 uM applied pre-emergence measured 14 days after treatment relative to acetochlor-treated control; assay type: functional
Zea mays [5] = experiment: Increase in GST activity in Zea mays (maize) root at 50 uM applied to seeds incubated for 5 days by CDNB-based spectrophotometric analysis relative to control; assay type: functional
Zea mays [6] = experiment: Increase in GST activity in Zea mays (maize) shoot at 50 uM applied to seeds incubated for 5 days by [14C]acetochlor-based liquid scintillation assay relative to control; assay type: functional
Zea mays [7] = experiment: Decrease in GST activity in Zea mays (maize) root at 50 uM applied to seeds incubated for 5 days by CDNB-based spectrophotometric analysis relative to control; assay type: functional, organism-based
Zea mays [8] = experiment: Decrease in GSH content in Zea mays (maize) root at 50 uM applied to seeds incubated for 5 days by DNTB-based spectrophotometric analysis relative to control; assay type: functional, organism-based
Zea mays [9] = experiment: Increase in GST activity in Zea mays (maize) shoot at 50 uM applied to seeds incubated for 5 days by CDNB-based spectrophotometric analysis relative to control; assay type: functional, organism-based
Zea mays [10] = experiment: Increase in GST activity in Zea mays (maize) root at 50 uM applied to seeds incubated for 5 days by [14C]acetochlor-based liquid scintillation assay relative to control; assay type: functional
Zea mays [11] = experiment: Effect on GST activity in Zea mays (maize) shoot at 50 uM applied to seeds incubated for 5 days by CDNB-based spectrophotometric analysis relative to control; assay type: functional, organism-based
Zea mays [12] = experiment: Effect on GST activity in Zea mays (maize) root at 50 uM applied to seeds incubated for 5 days by [14C]acetochlor-based liquid scintillation assay relative to control; assay type: functional, organism-based

Structure (SMILES) | Activity (Zea mays [2]) | Activity (Zea mays [3]) | Activity (Zea mays [4]) | further results
CCCOC(C)(OCCC)C(Cl)Cl | inactive | inactive | 63% | Activity (Zea mays [1]): inactive
ClC(Cl)C1OCCCCCCO1 |  | inactive | 24% | fold change (FC) (Zea mays [5]): 4
CCOC(CBr)OCC [BROMOACETAL] | Active |  | 60% | fold change (FC) (Zea mays [6]): 3.76; Activity (Zea mays [7]): Active
ClC(Cl)C1OCCCCCO1 |  | inactive | 24% | Activity (Zea mays [8]): Active; fold change (FC) (Zea mays [5]): 2
CC(C)COC(C)(OCC(C)C)C(Cl)Cl |  | inactive |  | fold change (FC) (Zea mays [6]): 4.72
CCCCOC(C)(OCCCC)C(Cl)Cl |  | inactive |  | 
ClC(Cl)C1(c2ccccc2)OCCO1 |  | inactive | Active | fold change (FC) (Zea mays [1]): >2; Activity (Zea mays [9]): Active; fold change (FC) (Zea mays [2]): >2
CCOCN(C(=O)CCl)c1c(C)cccc1CC |  |  |  | Activity (Zea mays [10]): Active; Activity (Zea mays [6]): Active
ClC(Cl)C1OCCO1 |  | inactive | 24% | Activity (Zea mays [8]): Active
CCOC(OCC)C(Cl)Cl |  | inactive | 24% | Activity (Zea mays [9]): Active; Activity (Zea mays [7]): Active
CCCOC(OCCC)C(Cl)Cl |  | inactive | 24% | 
ClC(Cl)C1OCCCO1 |  | inactive | 24% | Activity (Zea mays [8]): Active
CC1(C(Cl)Cl)OCCCO1 | Active | inactive | 68% | Activity (Zea mays [9]): Active
C=CCN(CC=C)C(=O)CCl |  |  |  | Activity (Zea mays [10]): Active; Activity (Zea mays [11]): inactive; Activity (Zea mays [6]): Active
CC(C)COC(OCC(C)C)C(Cl)Cl |  | inactive | 24% | 
C=CCN(CC=C)C(=O)CBr |  |  |  | Activity (Zea mays [10]): Active; Activity (Zea mays [11]): inactive; Activity (Zea mays [6]): Active
CC1(C(Cl)Cl)OCCCCO1 | Active | inactive | 70% | Activity (Zea mays [9]): Active; Activity (Zea mays [12]): inactive
CCOC(CCl)OCC [MONOCHLOROACETAL] | Active |  | 24% | Activity (Zea mays [7]): Active
CCOC(C)(OCC)C(Cl)Cl | inactive | inactive | 62% | Activity (Zea mays [1]): inactive
CC1(C(Cl)Cl)OCCCCCO1 | Active | inactive | Active | Activity (Zea mays [9]): Active
C=CCNC(=O)CCl [N-ALLYL-2-CHLOROACETAMIDE] |  |  | 48% | fold change (FC) (Zea mays [1]): 2.25; Activity (Zea mays [11]): inactive; fold change (FC) (Zea mays [2]): 2.25
CC1(C)COC(C(Cl)Cl)OC1 |  | inactive | 24% | Activity (Zea mays [8]): Active
CC1(C(Cl)Cl)OCCCCCCO1 | Active | inactive | Active | Activity (Zea mays [9]): Active
CC1(C(Cl)Cl)OCCO1 | Active | inactive | 64% | fold change (FC) (Zea mays [10]): 3.64; fold change (FC) (Zea mays [6]): 3.93; Activity (Zea mays [9]): Active
ClC(Cl)C1OCCCCO1 |  | inactive | 24% | Activity (Zea mays [8]): Active
CC1(C)COC(C)(C(Cl)Cl)OC1 | Active | inactive | Active | Activity (Zea mays [9]): Active
C=CCN(CC=C)C(=O)C(Cl)Cl [DICHLORMID] |  |  | 81% | fold change (FC) (Zea mays [1]): 1.65; Activity (Zea mays [11]): inactive; fold change (FC) (Zea mays [2]): 1.78
CCCCOC(OCCCC)C(Cl)Cl |  | inactive | 24% | 
